In brackets after ≈: the same amount, converted by molar mass. Structures can show the parent of a compound that is named as a salt.
Assays:
[1] = tested on: Thromboxane A2 Synthetase; assay: Determination of thromboxane A2 synthetase inhibitory activity (lysed horse platelets, [1-14C]-arachidonic acid conversion, TLC/scintillation counting); format: biochemical; conditions: concentration of active compound required to reduce the enzyme activity by 50%; horse platelet lysate, 3 min at 37°C
Procedure: The active compound was dissolved in a suitable solvent at a concentration of 5 mg/ml, and 20 µl added to 0.8 ml of 100 mM Tris buffer (pH 7.5). The platelets from 5 ml of horse PRP were centrifuged and resuspended in 100µl of Tris buffer. After lysis by sonication or freeze thawing, the platelet suspension was added to the solution of active compound and equilibrated for 5 min at room temperature. Then 300 ng (50 nCi) of [1-^14C]-arachidonic acid, dissolved in 100 µl Tris buffer, was added and the mixture incubated for 3 min at 37°C. The reaction was stopped with 50 ul 2N HCl and the products extracted with 1.5 volumes ethyl acetate by whirling for 30 seconds. 1 ml saturated NaCl was added to the aqueous phase to prevent emulsion formation. […] The plate was developed in chloroform, methanol, acetic acid, water (90:8:1:0.8), dried and then visualised by autoradiography for 2-3 days. […] The concentration of active compound required to reduce the enzyme activity by 50% (ED50) was established.

[2] = tested on: Thromboxane A2 Synthetase; assay: Duration of action of thromboxane A2 synthetase inhibitors in vivo (oral dosing, thromboxane A2 in serum of clotted blood by RIA); set-up: species or system N.Z. male rabbits; conditions: rabbit, period over which thromboxane A2 concentration is depressed relative to controls
Procedure: N.Z. male rabbits weighing 2.5 kg are anaesthetized with sodium pentobarbitone and chloralose and one carotoid artery is cannulated. Blood samples (lml) are taken for incubation; two as controls and one, adding 10 µg indomethacin, as a blank. After each sample is taken the cannula is flushed with saline. The active compound is then administered orally and further samples at half hour intervals for five to eight hours. The blood samples for the controls and the active compound are incubated in glass tubes for 45 minutes at 37°C to clot the blood. Indomethacin is added and the tubes centrifuged to separate the serum which is pipetted off for RIA analysis to determine the concentration of thromboxane A2. The period of time over which the inhibitor depressed the concentration of thromboxane A2 relative to the controls is then determined.

Row | Structure (SMILES) | ED50 [1] [µg/mL] | duration of action ([2]; dose of 160 mg/kg) | duration of action ([2]; dose of 2 mg/kg)
1 | Cl.O=C(O)c1ccc(Cn2ccnc2)c(Cl)c1 [Example 1, 1-(4-Carboxy-2-chlorobenzyl)imidazole hydrochloride] | 6.6 | at least 5 hours | –
2 | CCOC(=O)/C=C/c1ccc(Cn2ccnc2)c(Cl)c1 [Example 2, Ethyl (E)-3-[3-chloro-4-(imidazol-1-ylmethyl)phenyl]prop-2-enoate] | 0.5 (≈ 1.72 µM) | – | –
3 | Cl.O=C(O)/C=C/c1ccc(Cn2ccnc2)c(Cl)c1 [Example 3, (E)-3-[3-Chloro-4-(imidazol-1-ylmethyl)phenyl] prop-2-enoic acid hydro chloride] | 0.05 | – | at least 7 hours
4 | O=C(O)CCc1ccc(Cn2ccnc2)c(Cl)c1 [Example 4, 3-[3-Chloro-4-(imidazol-1-ylmethyl)phenyl]proeanoic acid hydrochloride] | 0.08 | – | –
5 | Cl.O.O=C(O)C=Cc1ccc(Cn2ccnc2)c(Br)c1 [Example 6, 3-[3-Bromo-4-(imidazol-1-ylmethyl)phenyl]prop-2-enoic acid hydrochloride hydrate] | 0.015 | – | –
6 | O=C(O)c1ccc(C=CCn2ccnc2)cc1Cl [Example 10, 1-[3-(4-Carboxy-3-chlorophenyl)prop-2-enyl]imidazole hydrochloride hemihydrate] | 0.35 | – | –

Source: patent EP0106060A2, “Imidazole derivatives and salts thereof, their synthesis, and pharmaceutical formulations” (THE WELLCOME FOUNDATION LIMITED, priority 1982, dated 1984)
